In US20240140949A1, “ANTI-CANCER PHARMACEUTICAL COMPOSITION FOR TARGETING HEAT SHOCK PROTEIN 70, CONTAINING INDOLOQUINAZOLIDINE ALKALOID” (SEOUL NATIONAL UNIVERSITY R & DB FOUNDATION, priority 2021, published 2024):

Assays:
H1299 lung cancer cells = experiment: Cell viability (MTT assay) in H1299 cells; assay type: cell-based, human; details: 100 nM, 3 days, MTT, compared with evodiamine and EV501-EV509 (FIG. 1)
Description: (§1) Human lung cancer cell lines (H1299, H460, A549, H226B, and PC9), breast cancer cell line (MDA-MB-231), liver cancer cell line (Hep3B), kidney cancer cell line (786-0), prostate cancer cell lines (DU145 and PC-3), and mouse lung cancer cell line (Lewis Lung Carcinoma, LLC) were purchased from ATCC (American Type Culture Collection) or obtained from Dr. John V. Heymach of MD Anderson Cancer Center, USA. The human head and neck cancer cell line (UMSCC38) was obtained from Dr. Jeffrey N. Myers (MD Anderson Cancer Center, USA). Human colon cancer cell lines (HCT116 and HT-29) and glioblastoma cell line (U87MG) were obtained from Professor Sang Kook Lee (Seoul National University College of Pharmacy). The human kidney cancer cell line (Caki-1), and gastric cancer cell line (SNU-638) were purchased from the Korean Cell Line Bank. The chemotherapy-resistant cells [paclitaxel-resistant H460 cells (H460/PcR), paclitaxel-resistant H226B cells (H226B/PcR), cisplatin-resistant H1299 cells (H1299/CsR), pemetrexed-resistant H1299 cells (H1299/PmR)] and molecularly targeted anticancer therapy-resistant cells [erlotinib-resistant PC9 cells (PC9/ER)] were constructed by treating the respective anti-cancer drugs for more than three months. H1299, H460, H226B, PC9, Hep3B, 786-0, DU145, PC-3, HCT116, HT-29, SNU-638, chemotherapeutic resistant cells, and molecularly targeted anticancer therapy-resistant cells were cultured in RPMI 1640 media containing 10% fetal bovine serum (FBS) and antibiotics at 37° C. under 5% CO2 conditions, while MDA-MB-231, UMSCC38, U87MG, Caki-1 were cultured in DMEM media containing 10% FBS and antibiotics at 37° C. under 5% CO2 conditions. Cells were passaged 1-2 times per week.
(§2) The cancer cell lines were seeded in a 96-well plate at a density of 2×10^3 cells per well and cultured for 24 hours to allow the cells to attach. The cells were then treated with diluted drugs in media for 3 days and cell viability was assessed using MTT assay or crystal violet (CB) assay. For the MTT assay, MTT solution dissolved in PBS was added to achieve a final concentration of 500 μg/mL and incubated for 2-4 hours, after which the medium was removed and the formed formazan was dissolved in 100% DMSO, followed by measuring the absorbance at 570 nm. For the CB assay, the cultured cells were fixed with 100% methanol, stained with a 0.025% crystal violet solution, dissolved in 1% SDS solution, and the absorbance was measured at 570 nm. Cell viability was calculated as the percentage of absorbance change in drug-treated group compared to vehicle (DMSO) treated control group.

[1] = test system: Hsp70 protein and Hsp70/Hsp90 client proteins (Akt, Src, and MEK); experiment: Western blot of Hsp70 and client proteins in lung cancer cells; assay type: cell-based, human
Description: as §1
The cells treated with the drug were treated with RIPA lysis buffer [50 mM Tris-HCl (pH 7.4), 150 mM NaCl, 1 mM EDTA, 0.25% sodium deoxycholate, 1% Triton X-100, 100 mM NaF, 5 mM Na3VO4, 1 mM PMSF, 1 μg/mL aprotinin, 1 μg/mL leupeptin, and 1 μg/mL pepstatin], followed by incubation on ice for 10 minutes and centrifugation at 13,000 rpm for 15 minutes to extract proteins. The proteins were quantified by BCA assay and equal amounts of proteins were separated by 8-10% SDS-PAGE. The separated proteins were transferred to a PVDF membrane, and the areas of the membrane not transferred with protein were blocked by incubating the membrane in 5% skim milk solution or 3% BSA solution diluted in TBST at room temperature for 1 hour. The membrane was then incubated in a primary antibody solution diluted 1:1,000 in 3% BSA at 4° C. for more than 12 hours. The primary antibody used was either anti-Hsp70 or anti-actin, with the anti-Hsp70 antibody obtained from Enzo Life Science and the actin antibody obtained from Santa Cruz Biotechnology. After incubation, the membrane was washed for 1 hour while changing TBST several times, and then incubated for 1 hour at room temperature with a secondary antibody (GeneTex) diluted 1:5,000 in 5% skim milk solution. After incubation, the membrane was washed for 1 hour while changing TBST several times, and then treated with an enhanced chemiluminescence (ECL) solution. The expression of Hsp70 or Actin protein was detected using LAS4000.

[2] = test system: tumors derived from lung cancer patients; experiment: Lung cancer patient-derived tumor xenograft growth in NOD/SCID mice; assay type: in vivo, mouse; details: 20 mg/kg orally six times a week, vs control group (FIG. 7)
Experimental: (§3) H460 cells (5×10^6 cells/spot) or lung cancer patient-derived tumors were implanted into the flank of 6-week-old NOD/SCID mice, or LLC-Luc cells (5×10^5 cells/spot) were implanted into the flank of 8-week-old C57BL/6 mice to form tumors. When the tumor volume reached 50-100 mm^3, the mice were divided into control and experimental groups (with at least 6 mice assigned to each group), and the control group was administered with vehicle (10% DMSO and 40% PEG400 solution prepared in sterile distilled water), while the experimental group was administered with EV507 (20 mg/kg) six times a week orally. The major and minor axes of the tumor were measured, and the tumor size was measured at least 3-4 times a week, and the body weight was measured at least once a week to evaluate the toxicity of the drug. Also, the survival of C57BL/6 mice implanted with LLC-Luc cells was monitored to determine the survival curve. The tumor volume was calculated as (width)^2× length×0.5.

LLC-Luc tumors = experiment: Survival in LLC-Luc transplant allograft (lung metastasis) model; assay type: in vivo, mouse; details: C57BL/6 mice, 20 mg/kg orally six times a week (FIG. 8)
Experimental: as §3
Moreover, it is known that in the LLC-Luc transplant allograft model that spontaneously generates pulmonary metastatic cancer, mouse mortality occurs due to the proliferation of transplanted LLC-Luc tumors and the formation of pulmonary metastatic cancer. In this allograft model, EV507 was administered to confirm its inhibitory effect on mouse mortality caused by tumor proliferation.

cancer cell = experiment: Cancer cell survival inhibitory activity (crystal violet assay); assay type: cell-based; details: crystal violet assay (FIG. 19)
Experimental: as §2

With `C=CCN1c2ccccc2C(=O)N2CCc3c([nH]c4ccc(O)cc34)C21` (stereo not drawn) [EV507] the “inhibition of cancer cell survival (cell viability)” value (H1299 lung cancer cells) was “most excellent efficacy”, the “expression of Hsp70 protein and Hsp70/Hsp90 client proteins (Akt, Src, and MEK)” value ([1]; H1299, H460, A549, H226B lung cancer cell lines (FIG. 4)) was “clear reduction” and the “expression of Hsp70 and Src and Akt (client proteins of Hsp70/Hsp90)” value ([1]; Western blot (FIG. 21)) was “decrease”. For the same molecule, the tumor growth [2] was “significantly inhibited”, the mouse mortality (LLC-Luc tumors) was “significantly reduced” and the “cancer cell survival inhibitory activity” value (cancer cell) was “excellent”.
